Target: T1, human 5-HT6 receptor (Homo sapiens, UniProt P50406)
T1 construct: expressed in transfected cells
Assay: Radioligand binding at the 5-HT6 receptor (3H-LSD displacement)
Conditions: inhibition of 3H-LSD (1.6 nM) binding; membranes of cell line stably expressing human 5-HT6 receptor; 60 minutes at 37° C.
Procedure: Radioligand Binding at the 5-HT6 Receptor
Compounds of the present invention were evaluated using a cell line that stably expresses the human 5-HT6 receptor. Membranes prepared from the cell line were incubated with 3H-LSD (1.6 nM) in the presence of increasing concentrations (10^−10 to 10^−6 M) of test compounds for 60 minutes at 37° C. The reaction was terminated by vacuum filtration of the membranes and washing of the filters with assay buffer. Radioactivity retained on the filters was determined using liquid scintillation spectrometry. The potency of the test compound to inhibit 3H-LSD binding to the 5-HT6 receptor was defined as the concentration of compound required to inhibit 50% (IC50) of radioligand binding as determined by computer assisted analysis of the data. Clozapine was used as an internal standard for comparison.

T1 sequence (P50406 whole entry): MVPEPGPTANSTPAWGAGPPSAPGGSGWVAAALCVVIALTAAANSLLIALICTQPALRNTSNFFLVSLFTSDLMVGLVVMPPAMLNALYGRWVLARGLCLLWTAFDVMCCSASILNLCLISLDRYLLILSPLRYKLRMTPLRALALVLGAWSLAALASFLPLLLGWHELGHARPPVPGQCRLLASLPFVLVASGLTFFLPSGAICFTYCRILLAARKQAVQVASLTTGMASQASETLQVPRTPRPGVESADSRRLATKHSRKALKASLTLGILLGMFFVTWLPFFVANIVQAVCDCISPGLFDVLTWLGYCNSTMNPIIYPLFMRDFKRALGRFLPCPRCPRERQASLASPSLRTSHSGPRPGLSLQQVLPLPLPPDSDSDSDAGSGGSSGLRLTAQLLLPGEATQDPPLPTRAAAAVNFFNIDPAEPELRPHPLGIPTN

| SMILES | IC50 [nM] |
| --- | --- |
| CSc1nc2ccccn2c(=N)c1S(=O)(=O)c1ccc(Cl)cc1 [Example 1, 3-(4-Chloro-benzenesulfonyl)-2-methylsulfanyl-pyrido[1,2-a]pyrimidin-4-ylideneamine] | < 20 |
| CSc1nc2ccccn2c(=N)c1S(=O)(=O)c1ccccc1 [Example 2, 3-Benzenesulfonyl-2-methylsulfanyl-pyrido[1,2-a]pyrimidin-4-ylideneamine] | < 20 |
| CSc1nc2ccccn2c(=N)c1S(=O)(=O)c1ccc2ccccc2c1 [Example 3, 2-Methylsulfanyl-3-(naphthalene-2-sulfonyl)-pyrido[2-a]pyrimidin-4-ylideneamine] | 50 to 100 |
| CSc1nc2ccccn2c(=N)c1S(=O)(=O)c1cc(C)c(Cl)cc1C [Example 4, 3-(2,5-Dimethyl-4-Chloro-benzenesulfonyl)-2-methylsulfanyl-pyrido[1,2-a]pyrimidin-4-ylideneamine] | < 20 |
| CSc1nc2ccccn2c(=N)c1S(=O)(=O)c1ccc(F)cc1 [Example 5, 3-(4-Fluoro-benzenesulfonyl)-2-methylsulfanyl-pyrido[1,2-a]pyrimidin-4-ylideneamine] | < 20 |
| CSc1nc2ccccn2c(=N)c1S(=O)(=O)c1ccc(Cl)c(Cl)c1 [Example 6, 3-(3,4-Dichloro-benzenesulfonyl)-2-methylsulfanyl-pyrido[1,2-a]pyrimidin-4-ylideneamine] | < 20 |
| CSc1nc2ccccn2c(=N)c1S(=O)(=O)c1ccccc1Cl [Example 7, 3-(2-Chloro-benzenesulfonyl)-2-methylsulfanyl-pyrido[1,2-a]pyrimidin-4-ylideneamine] | < 20 |
| CSc1nc2ccccn2c(=N)c1S(=O)(=O)c1ccc(C(C)(C)C)cc1 [Example 8, 3-(4-t-Butyl-benzenesulfonyl)-2-methylsulfanyl-pyrido[1,2-a]pyrimidin-4-ylideneamine] | 50 to 100 |
| CSc1nc2ccccn2c(=N)c1S(=O)(=O)c1ccc(OC(F)(F)F)cc1 [Example 9, 3-(4-Trifluoromethoxy-benzenesulfonyl)-2-methylsulfanyl-pyrido[1,2-a]pyrimidin-4-ylideneamine] | 100 to 1000 |
| CSc1nc2c(C)cccn2c(=N)c1S(=O)(=O)c1ccccc1 [Example 10, 3-Benzenesulfonyl-9-methyl-2-methylsulfanyl-pyrido[1,2-a]pyrimidin-4-ylideneamine] | < 20 |
| CSc1nc2cc(C)ccn2c(=N)c1S(=O)(=O)c1ccccc1 [Example 11, 3-Benzenesulfonyl-8-methyl-2-methylsulfanyl-pyrido[1,2-a]pyrimidin-4-ylideneamine] | < 20 |
| CSc1nc2ccc(Br)cn2c(=N)c1S(=O)(=O)c1ccccc1 [Example 12, 3-Benzenesulfonyl-7-bromo-2-methylsulfanyl-pyrido[1,2-a]pyrimidin-4-ylideneamine] | < 20 |
| CSc1nc2ccc(Cl)cn2c(=N)c1S(=O)(=O)c1ccccc1 [Example 13, 3-Benzenesulfonyl-7-chloro-2-methylsulfanyl-pyrido[1,2-a]pyrimidin-4-ylideneamine] | < 20 |
| CSc1nc2ccc(C)cn2c(=N)c1S(=O)(=O)c1ccccc1 [Example 14, 3-Benzenesulfonyl-7-methyl-2-methylsulfanyl-pyrido[1,2-a]pyrimidin-4-ylideneamine] | < 20 |
| CSc1nc2c(Br)cc(C)cn2c(=N)c1S(=O)(=O)c1ccccc1 [Example 15, 3-Benzenesulfonyl-9-bromo-7-methyl-2-methylsulfanyl-pyrido[1,2-a]pyrimidin-4-ylideneamine] | 100 to 1000 |
| CSc1nc2c(C)cc(Br)cn2c(=N)c1S(=O)(=O)c1ccccc1 [Example 16, 3-Benzenesulfonyl-7-bromo-9-methyl-2-methylsulfanyl-pyrido[1,2-a]pyrimidin-4-ylideneamine] | < 20 |
| CCc1ccn2c(=N)c(S(=O)(=O)c3ccccc3)c(SC)nc2c1 [Example 17, 3-Benzenesulfonyl-8-ethyl-2-methylsulfanyl-pyrido[1,2-a]pyrimidin-4-ylideneamine] | 50 to 100 |
| CCCc1ccn2c(=N)c(S(=O)(=O)c3ccccc3)c(SC)nc2c1 [Example 18, 3-Benzenesulfonyl-2-methylsulfanyl-8-propyl-pyrido[1,2-a]pyrimidin-4-ylideneamine] | 100 to 1000 |

| SMILES | IC50 [nM] |
| --- | --- |
| COC(=O)c1ccc2nc(SC)c(S(=O)(=O)c3ccccc3)c(=N)n2c1 [Example 19, 3-Benzenesulfonyl-4-imino-2-methylsulfanyl-4H-pyrido[1,2-a]pyrimidine-7-carboxylic acid methyl ester] | 100 to 1000 |
| CSc1nc2c(C)cc(Cc3ccccc3)cn2c(=N)c1S(=O)(=O)c1ccccc1 [Example 20, 3-Benzenesulfonyl-7-benzyl-9-methyl-2-methylsulfanyl-pyrido[1,2-a]pyrimidin-4-ylideneamine] | 50 to 100 |
| CSc1nc2ccc(F)cn2c(=N)c1S(=O)(=O)c1ccccc1 [Example 21, 3-Benzenesulfonyl-7-fluoro-2-methylsulfanyl-pyrido[1,2-a]pyrimidin-4-ylideneamine] | < 20 |
| CSc1nc2c(OCc3ccccc3)cccn2c(=N)c1S(=O)(=O)c1ccccc1 [Example 22, 3-Benzenesulfonyl-9-benzyloxy-2-methylsulfanyl-pyrido[1,2-a]pyrimidin-4-ylideneamine] | 100 to 1000 |
| CSc1nc2c3ccccc3ccn2c(=N)c1S(=O)(=O)c1ccccc1 [Example 23, 3-Benzenesulfonyl-2-methylsulfanyl-pyrimido[2,1-a]isoquinolin-4-ylideneamine] | 50 to 100 |
| CSc1nc2c3ncccc3ccn2c(=N)c1S(=O)(=O)c1ccccc1 [Example 24, 7-Benzenesulfonyl-6-methylsulfanyl-4,5,8a-triaza-phenanthren-8-ylideneamine] | 50 to 100 |
| CSc1nc2ccc(C(N)=O)cn2c(=N)c1S(=O)(=O)c1ccccc1 [Example 25, 3-Benzenesulfonyl-4-imino-2-methylsulfanyl-4H-pyrido[1,2-a]pyrimidine-7-carboxylic acid amide] | < 20 |
| CNc1nc2ccccn2c(=N)c1S(=O)(=O)c1ccccc1 [Example 26] | < 20 |
| CCNc1nc2ccccn2c(=N)c1S(=O)(=O)c1ccccc1 [Example 27, 3-(Benzenesulfonyl-4-imine-4H-pyrido[1,2-a]pyrimidin-2-yl)-ethyl-amine] | < 20 |
| Cc1ccc(Nc2nc3ccc(C)cn3c(=N)c2S(=O)(=O)c2ccccc2)nc1 [Example 28] | 50 to 100 |
| N=c1c(S(=O)(=O)c2ccccc2)c(NCCO)nc2ccccn12 [Example 29, 2-(3-Benzenesulfonyl-4-imino-4H-pyrido[1,2-a]pyrimidin-2-ylamino)-ethanol] | < 20 |
| COc1nc2ccccn2c(=N)c1S(=O)(=O)c1ccccc1 [Example 30, 3-Benzenesulfonyl-2-methoxy-pyrido[1,2-a]pyrimidin-4-ylideneamine] | < 20 |
| CCOc1nc2ccccn2c(=N)c1S(=O)(=O)c1ccccc1 [Example 31, 3-Benzenesulfonyl-2-ethoxy-pyrido[1,2-a]pyrimidin-4-ylideneamine] | < 20 |
| C[S+]([O-])c1nc2ccccn2c(=N)c1S(=O)(=O)c1ccccc1 (centres unmarked) [Example 32, 3-Benzenesulfonyl-2-methanesulfinyl-pyrido[1,2-a]pyrimidin-4-ylideneamine] | 100 to 1000 |
| CN=c1c(S(=O)(=O)c2ccccc2)c(SC)nc2ccccn12 [Example 33] | 100 to 1000 |
| CSc1nc2ccccn2c(=NC(C)=O)c1S(=O)(=O)c1ccccc1 [Example 34, N-(3-Benzenesulfonyl-2-methylsulfanyl-pyrido[1,2-a]pyrimidin-4-ylidene)-acetamide] | 50 to 100 |
| CSc1nc2ccccn2c(=O)c1S(=O)(=O)c1ccccc1 [Example 35, 3-Benzenesulfonyl-2-methylsulfanyl-pyrido[1,2-a]pyrimidin-4-one] | 50 to 100 |

Reference: patent publication US6875771B2, “Pyridopyrimidine derivatives as 5-HT6 antagonists” (Bristol-Myers Squibb Company, priority 2002, dated 2005)
